Measured values published in patent US10869871B2, “Compositions and methods of modulating short-chain dehydrogenase activity” (CASE WESTERN RESERVE UNIVERSITY, priority 2013, dated 2020).

Tests used:
[1] = Survival of 11Gy irradiated C57BL/6J mice receiving bone marrow allograft; assay type: in vivo, mouse; settings: 5 mg/kg IP bid
From the text: The experimental design is depicted in FIG. 50.
Under the conditions of the mouse colony during this study, control mice receiving 100,000-500,000 cells are all dead between days 4-13 of study. […] Such activity would be of particular utility in settings, such as transplantation with umbilical cord stem cells, in which donor cell numbers are limited.

15-PGDH protein = experiment: Western blot of 15-PGDH protein levels in treated cell lines; assay type: cell-based; settings: […] compound for 48 hours

CCCC[S+]([O-])c1sc2nc(-c3cccs3)cc(-c3ccccc3)c2c1N (stereo not shown) [SW033291, 2-(butylsulfinyl)-4-phenyl-6-(thiophen-2-yl)thieno[2,3-b]pyridin-3-amine]
increase levels of 15-PGDH protein: levels of 15-PGDH protein (western blot) (15-PGDH protein)
2: number of surviving mice ([1]; 1 × 10^5 donor cells, Day 4) | number of surviving mice ([1]; 2 × 10^5 donor cells, Day 6) | number of surviving mice ([1]; 2 × 10^5 donor cells, Day 7) | number of surviving mice ([1]; 2 × 10^5 donor cells, Day 8) | number of surviving mice ([1]; 2 × 10^5 donor cells, Day 9) | number of surviving mice ([1]; 2 × 10^5 donor cells, Day 10) | number of surviving mice ([1]; 2 × 10^5 donor cells, Day 11) | number of surviving mice ([1]; 5 × 10^5 donor cells, Day 8) | number of surviving mice ([1]; 5 × 10^5 donor cells, Day 9) | number of surviving mice ([1]; 5 × 10^5 donor cells, Day 10) | number of surviving mice ([1]; 5 × 10^5 donor cells, Day 11) | number of surviving mice ([1]; 5 × 10^5 donor cells, Day 12) | number of surviving mice ([1]; 5 × 10^5 donor cells, Day 13) | number of surviving mice ([1]; 5 × 10^5 donor cells, Day 19)
1: number of surviving mice ([1]; 1 × 10^5 donor cells, Day 5) | number of surviving mice ([1]; 2 × 10^5 donor cells, Day 12)
3: number of surviving mice ([1]; 1 × 10^5 donor cells, Day 0) | number of surviving mice ([1]; 1 × 10^5 donor cells, Day 1) | number of surviving mice ([1]; 1 × 10^5 donor cells, Day 2) | number of surviving mice ([1]; 1 × 10^5 donor cells, Day 3) | number of surviving mice ([1]; 2 × 10^5 donor cells, Day 0) | number of surviving mice ([1]; 2 × 10^5 donor cells, Day 1) | number of surviving mice ([1]; 2 × 10^5 donor cells, Day 2) | number of surviving mice ([1]; 2 × 10^5 donor cells, Day 3) | number of surviving mice ([1]; 2 × 10^5 donor cells, Day 4) | number of surviving mice ([1]; 2 × 10^5 donor cells, Day 5) | number of surviving mice ([1]; 5 × 10^5 donor cells, Day 0) | number of surviving mice ([1]; 5 × 10^5 donor cells, Day 1) | number of surviving mice ([1]; 5 × 10^5 donor cells, Day 2) | number of surviving mice ([1]; 5 × 10^5 donor cells, Day 3) | number of surviving mice ([1]; 5 × 10^5 donor cells, Day 4) | number of surviving mice ([1]; 5 × 10^5 donor cells, Day 5) | number of surviving mice ([1]; 5 × 10^5 donor cells, Day 6) | number of surviving mice ([1]; 5 × 10^5 donor cells, Day 7)
0: number of surviving mice ([1]; 1 × 10^5 donor cells, Day 6) | number of surviving mice ([1]; 2 × 10^5 donor cells, Day 13)
